Source: patent publication US20230416329A1, “A PEPTIDE WITH DISULFIDE BONDS AND INHIBITORY ACTIVITY AGAINST SERINE PROTEASES, DERIVED HYBRID PEPTIDES THEREOF, AND USES THEREOF” (INSTITUTE OF MATERIA MEDICA , CHINESE ACADEMY OF MEDICAL …, priority 2020, published 2023)
One block for each molecule: values may come before it. Bridge positions count the residues as written; N and C are the ends. Square brackets hold non-standard residues; d marks the D form. Peptide text beside a SMILES is read from it. Hyp = O=C(O)[C@@H]1C[C@@H](O)CN1

What was measured:
trypsin = target: T1, trypsin (Bos taurus, UniProt P00760); assay: in vitro
T1 sequence (P00760 24-246): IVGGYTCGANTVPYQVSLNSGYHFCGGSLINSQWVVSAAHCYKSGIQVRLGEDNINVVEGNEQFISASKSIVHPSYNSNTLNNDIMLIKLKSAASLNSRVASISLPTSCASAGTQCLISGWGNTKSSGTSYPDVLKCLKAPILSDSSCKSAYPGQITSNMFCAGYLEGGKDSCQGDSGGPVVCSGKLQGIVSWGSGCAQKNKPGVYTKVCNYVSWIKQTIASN
Procedure: FIG. 17. […] At different time point, 25 μL aliquots was taken out, and 10% (v/v) TFA was added to terminate the reaction.
(§1) Mix by centrifugation at 8000 rpm for 30 seconds.
(§2) Arrange a certain volume of 0.05 μg/μL trypsin solution in another sterile EP. Incubate the EP tubes containing peptides and enzymes at 37° C. for 5 min, and separately add 6 μL of trypsin solution to each EP tube containing peptides and mix well. Start timing and extract 25 μL of reaction solution at 1.5, 3.0, 4.5, 6.0 and 9.0 min later, respectively. Add 3.75 μL of 10% TFA to terminate the reaction and mix well by centrifugation at 8000 rpm for 30 seconds.
as §2, with “and” for “and separately”, “9” for “6”, “6.0, 9.0, 15.0, 30.0,” for “6.0”, “60.0” for “9.0”
(§3) Referring to the experimental method in Example 5, in vitro stability of salmon Calcitonin analogs with oral administration activity to the enzymatic hydrolysis by trypsin, chymotrypsin and elastase were performed.
(§4) Referring to the experimental method in Example 5, in vitro stability of IL-17A inhibitory peptides towards the enzymatic hydrolysis by trypsin, chymotrypsin and elastase were performed.

chymotrypsin = chymotrypsin (Bos taurus, UniProt P00766); assay: in vitro
Procedure: FIG. 18. […] At different time point, 25 μL aliquots was taken out, and 10% (v/v) TFA was added to terminate the reaction.
as §1
as §2, with “μg/μL chymotrypsin” for “μg/μL trypsin”, “and” for “and separately”, “add 3” for “add 6”
as §2, with “chymotrypsin” for “trypsin”, “then” for “separately”, “4.5” for “6”, “6.0, 9.0, 15.0, 30.0,” for “6.0”, “60.0” for “9.0”
as §3, §4

α-chymotrypsin = α-chymotrypsin (Bos taurus, UniProt P00766); assay: Chymotrypsin inhibitory activity of peptides (AAPFpNA hydrolysis; IC50, Ki, residual activity); assay type: biochemical; details: for Ki: Ki=IC50/(1+S/Km), Km 0.38 mM; for IC50: chymotrypsin 30 nM, AAPFpNA 0.5 mM
Method in brief: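 Peptide preincubated 10 min at 37 °C with 30 nM α-chymotrypsin in 50 mM Tris-HCl pH 7.8, 20 mM CaCl2; 0.5 mM AAPFpNA then added and A405 read after 90 min. Residual activity versus controls gave IC50; Ki = IC50/(1+S/Km), with Km measured separately.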

[1] = isolated enzyme chymotrypsin, pH 7.8, Remaining peak area (%)/chymotrypsin

SMILES: C[C@@H]1NC(=O)[C@@H](NC(=O)[C@@H](N)Cc2ccccc2)CSSC[C@@H](C(=O)N[C@@H](CCC(N)=O)C(=O)O)NC(=O)[C@H](CCC(N)=O)NC(=O)[C@@H]2CCCN2C(=O)[C@@H]2CCCN2C(=O)[C@H](CC(N)=O)NC(=O)[C@H](CO)NC(=O)[C@H](Cc2ccc(O)cc2)NC1=O [CH43] (H-FCAYSNPPQCQ-OH; disulfide 2-10; N-terminus and C-terminus assumed)
Ki (α-chymotrypsin): 3.97 µM
IC50 (α-chymotrypsin): 9.2 µM

SMILES: C[C@@H]1NC(=O)[C@@H](NC(=O)[C@@H](N)Cc2ccccc2)CSSC[C@@H](C(=O)N[C@@H](CCC(N)=O)C(=O)O)NC(=O)[C@H](CCCCN)NC(=O)[C@@H]2CCCN2C(=O)[C@@H]2CCCN2C(=O)[C@H](Cc2ccc(O)cc2)NC(=O)[C@H](CO)NC(=O)[C@H](Cc2ccc(O)cc2)NC1=O [CH45] (H-FCAYSYPPKCQ-OH; disulfide 2-10; N-terminus and C-terminus assumed)
Ki (α-chymotrypsin): 8.29 µM
IC50 (α-chymotrypsin): 19.2 µM

SMILES: NC(=O)CC[C@H](NC(=O)[C@@H]1CSSC[C@H](NC(=O)[C@@H](N)Cc2ccccc2)C(=O)N[C@@H](CC(N)=O)C(=O)N[C@@H](Cc2ccc(O)cc2)C(=O)N[C@@H](CO)C(=O)N[C@@H](CC(N)=O)C(=O)N2CCC[C@H]2C(=O)N2CCC[C@H]2C(=O)N[C@@H](CCC(N)=O)C(=O)N1)C(=O)O [CH46] (H-FCNYSNPPQCQ-OH; disulfide 2-10; N-terminus and C-terminus assumed)
IC50 (α-chymotrypsin): > 50 µM

SMILES: CC[C@H](C)[C@H](N)C(=O)N[C@H]1CSSC[C@@H](C(=O)N[C@H](C(=O)O)[C@@H](C)CC)NC(=O)[C@H](CCC(N)=O)NC(=O)[C@H](C)NC(=O)[C@@H]2CCCN2C(=O)[C@H]([C@@H](C)CC)NC(=O)[C@H](CO)NC(=O)[C@H](Cc2ccc(O)cc2)NC(=O)[C@H]([C@@H](C)O)NC1=O [CH47] (H-ICTYSIPAQCI-OH; disulfide 2-10; N-terminus and C-terminus assumed)
inhibitory activity against chymotrypsin (in words) (α-chymotrypsin): good chymotrypsin inhibitory activity
Ki (α-chymotrypsin): 3.68 µM
IC50 (α-chymotrypsin): 8.52 µM

SMILES: CSCC[C@@H]1NC(=O)[C@H](C)NC(=O)[C@@H]2CCCN2C(=O)[C@H](CC(N)=O)NC(=O)[C@H](CO)NC(=O)[C@H](Cc2ccccc2)NC(=O)[C@H]([C@@H](C)O)NC(=O)[C@@H](NC(=O)[C@@H](N)C(C)C)CSSC[C@@H](C(=O)N[C@@H](Cc2c[nH]cn2)C(=O)O)NC1=O [CH48] (H-VCTFSNPAMCH-OH; disulfide 2-10)
IC50 (α-chymotrypsin): > 50 µM

SMILES: CSCC[C@H](N)C(=O)N[C@H]1CSSC[C@@H](C(=O)N[C@H](C(=O)O)C(C)C)NC(=O)[C@H](CCCCN)NC(=O)[C@H](C)NC(=O)[C@@H]2CCCN2C(=O)[C@H](Cc2c[nH]cn2)NC(=O)[C@H](CO)NC(=O)[C@H](Cc2ccccc2)NC(=O)[C@H]([C@@H](C)O)NC1=O [CH49] (H-MCTFSHPAKCV-OH; disulfide 2-10; N-terminus and C-terminus assumed)
inhibitory activity against chymotrypsin (in words) (α-chymotrypsin): good chymotrypsin inhibitory activity
Ki (α-chymotrypsin): 9.81 µM
IC50 (α-chymotrypsin): 22.7 µM

SMILES: CC[C@H](C)[C@@H]1NC(=O)[C@H](CO)NC(=O)[C@H](Cc2ccc(O)cc2)NC(=O)[C@H]([C@@H](C)O)NC(=O)[C@@H](NC(=O)[C@@H](N)Cc2ccccc2)CSSC[C@@H](C(=O)N[C@@H](Cc2ccc(O)cc2)C(=O)NCC(=O)O)NC(=O)[C@H](CCC(N)=O)NC(=O)[C@@H]2CCCN2C(=O)[C@@H]2C[C@@H](O)CN2C1=O [CH53, FCTYSIHypPQCYG] (H-FCTYSI[Hyp]PQCYG-OH; disulfide 2-10; C-terminus assumed)
inhibitory activity against chymotrypsin (in words) (α-chymotrypsin): good chymotrypsin inhibitory activity
Ki (α-chymotrypsin): 0.11 µM
IC50 (α-chymotrypsin): 0.25 µM

Now from value to molecule, other results behind:

Remaining peak area (%)/chymotrypsin (chymotrypsin; 0 h): 100.0 ± 0.0%
remaining at 0.025 h, 60 μM (chymotrypsin; [1]): 69.6 ± 3%
remaining at 0.05 h, 60 μM (chymotrypsin; [1]): 68.9 ± 4.8%
remaining at 0.075 h, 60 μM (chymotrypsin; [1]): 48.1 ± 4.3%
remaining at 0.1 h, 60 μM (chymotrypsin; [1]): 45.2 ± 1.3%
remaining at 0.15 h, 60 μM (chymotrypsin; [1]): 42.9 ± 3%
remaining at 0.25 h, 60 μM (chymotrypsin; [1]): 37 ± 1.7%
remaining at 0.5 h, 60 μM (chymotrypsin; [1]): 26.4 ± 0.4%
remaining at 1 h, 60 μM (chymotrypsin; [1]): 9.6 ± 0.8%
SMILES: CC[C@H](C)[C@H](N)C(=O)N[C@@H](Cc1c[nH]cn1)C(=O)N[C@H](C(=O)N[C@H](C(=O)N[C@H](C(=O)N1CCC[C@H]1C(=O)N[C@@H](C)C(=O)N[C@@H](CC(=O)O)C(=O)N[C@@H](CC(C)C)C(=O)N[C@@H](Cc1c[nH]c2ccccc12)C(=O)N[C@@H](CC(=O)O)C(=O)N[C@@H](Cc1c[nH]c2ccccc12)C(=O)N[C@H](C(=O)N[C@@H](CC(N)=O)C(=O)NCC(=O)N[C@H]1CSSC[C@@H](C(=O)N[C@@H](Cc2ccccc2)C(=O)O)NC(=O)[C@H]([C@@H](C)CC)NC(=O)[C@@H]2CCCN2C(=O)[C@@H]2CCCN2C(=O)[C@H]([C@@H](C)CC)NC(=O)[C@H](CO)NC(=O)[C@H](CCCCN)NC(=O)[C@H]([C@@H](C)O)NC(=O)[C@H](C)NC(=O)[C@H](CCCNC(=N)N)NC(=O)CNC1=O)[C@@H](C)CC)[C@@H](C)CC)[C@@H](C)O)C(C)C [17A-BT] (H-IHVTIPADLWDWINGCGRATKSIPPICF-OH; disulfide 16-27)
stability towards trypsin hydrolysis (in words) (trypsin): tolerated to the degradation of corresponding serine proteases

Ki (α-chymotrypsin): 8.59 µM
IC50 (α-chymotrypsin): 19.9 µM
SMILES: C[C@@H]1NC(=O)[C@@H](NC(=O)[C@@H](N)Cc2ccccc2)CSSC[C@@H](C(=O)N[C@@H](CCC(N)=O)C(=O)O)NC(=O)[C@H](CCCCN)NC(=O)[C@@H]2CCCN2C(=O)[C@@H]2CCCN2C(=O)[C@H](CC(N)=O)NC(=O)[C@H](CO)NC(=O)[C@H](Cc2ccc(O)cc2)NC1=O [CH44] (H-FCAYSNPPKCQ-OH; disulfide 2-10; N-terminus and C-terminus assumed)

IC50 (α-chymotrypsin): > 50 µM
SMILES: CSCC[C@@H]1NC(=O)CNC(=O)[C@@H]2CCCN2C(=O)[C@H](CC(=O)O)NC(=O)[C@H](CO)NC(=O)[C@H](Cc2ccccc2)NC(=O)[C@H]([C@@H](C)O)NC(=O)[C@@H](NC(=O)[C@@H](N)CCSC)CSSC[C@@H](C(=O)N[C@@H](CO)C(=O)O)NC1=O [CH50] (H-MCTFSDPGMCS-OH; disulfide 2-10; N-terminus and C-terminus assumed)

inhibitory activity against chymotrypsin (in words) (α-chymotrypsin): good chymotrypsin inhibitory activity
SMILES: CC[C@H](C)[C@@H]1NC(=O)[C@H](CO)NC(=O)[C@H](Cc2ccc(O)cc2)NC(=O)[C@H]([C@@H](C)O)NC(=O)[C@@H](NC(=O)[C@@H]2CCCN2)CSSC[C@@H](C(=O)N[C@@H](Cc2ccc(O)cc2)C(=O)O)NC(=O)[C@H](CCC(N)=O)NC(=O)[C@@H]2CCCN2C(=O)[C@@H]2CCCN2C1=O [CH51] (H-PCTYSIPPQCY-OH; disulfide 2-10; N-terminus and C-terminus assumed)

Ki (α-chymotrypsin): 0.36 µM
IC50 (α-chymotrypsin): 0.84 µM
SMILES: CC[C@H](C)[C@@H]1NC(=O)[C@H](CO)NC(=O)[C@H](Cc2ccc(O)cc2)NC(=O)[C@H]([C@@H](C)O)NC(=O)[C@@H](NC(=O)[C@@H](N)Cc2ccccc2)CSSC[C@@H](C(=O)N[C@@H](Cc2ccc(O)cc2)C(=O)NCC(=O)O)NC(=O)[C@H](CCC(N)=O)NC(=O)[C@@H]2C[C@@H](O)CN2C(=O)[C@@H]2CCCN2C1=O [CH52] (H-FCTYSIP[Hyp]QCYG-OH; disulfide 2-10)
